We go through two compounds from patent publication US8426612B2, “Synthesis of 3-{[(2R)-1-methylpyrrolidin-2-yl]methyl}-5[2-(phenylsulfonyl)ethyl]-1H-indole” (F.I.S. Fabbrica Italiana Sintetici S.p.A., priority 2009, dated 2013).

Data set [1] in a line: Prior-art experiments to convert Beta form to Alpha form or amorphous, repeated under exactly the same conditions. Particulars: conditions of U.S. Pat. No. 6,110,940 (example 2) and WO2008/137134 (examples 16-19; 2, 7, 8, 12, 13). Type of data set: physicochemical. Here is the method: In addition, the same experiments described in U.S. Pat. No. 6,110,940 (example 2) and WO2008/137134 (examples 16, 17, 18, 19) to convert Eletriptan Beta form to Alpha form and those described in WO2008/137134 (examples 2, 7, 8, 12 and 13) to convert Eletriptan Beta form to amorphous were carried out on Eletriptan Hydrobromide form Beta of invention, applying exactly the same conditions. […] There results confirms the stability of Eletriptan hydrobromide Beta form of invention and his different behaviour in comparison with the same form described in the State of the Art.

A short description of data set [2]: Stability tests of Eletriptan hydrobromide Beta form polymorph in various solvents, temperatures and times. Particulars: all experiments of the 1st table: various solvents, RT to 80° C. or heating, 5-48 hr; DSC trace. Type of data set: physicochemical. The text has this: Eletriptan hydrobromide Beta form obtained according to the inventive process has been subject to a series of experiments to assess its stability against the conversion into Form Alpha of higher melting point or in amorphous.
These experiments have been performed in various solvents and at various temperature and time conditions. […] The DSC trace is the same for all the product prepared according to Example 18 and is the same of that of Beta polymorph.

Data set [3] is described as follows: DSC study with heating/cooling cycles to convert Beta form to other forms. Format: physicochemical.
Data set [4] in a line: Hygroscopicity test as described in the European Pharmacopoeia 5.0. Format: physicochemical. To be noted: 25° C., 80% rel. humidity, 24 h. Here is the method: Eletriptan hydrobromide Beta stable form obtained according to the inventive process has been subject to the hygroscopicity test as described in the European Pharmacopoeia 5.0 (25° C., 80% rel. humidity, 24 h).
The conditions of data set [5]: reported in U.S. Pat. No. 6,110,940; converts into Form Alpha; cited from earlier work.

On to `Br.CN1CCC[C@@H]1Cc1c[nH]c2ccc(CCS(=O)(=O)c3ccccc3)cc12` [Eletriptan hydrobromide Form Beta, 3-{[(2R)-1-methylpyrrolidin-2-yl]methyl}-5-[2-(phenylsulfonyl)ethyl]-1H-indole hydrobromide], for which the polymorphic form obtained result in data set [1] is “provided only Eletriptan hydrobromide form Beta”. The “stability against conversion into Form Alpha, amorphous or other forms” value in data set [2] is reported as “did not convert into Form A, amorphous or other crystalline forms or in any hydrated form”. The polymorphic form obtained result in data set [3] is recorded as “provided always Form Beta”. In data set [4], the “hygroscopicity (classification)” value is recorded as “not hygroscopic” and the “hygroscopicity (value)” value was found to be 0.1%.
`Br.CN1CCC[C@@H]1Cc1c[nH]c2ccc(CCS(=O)(=O)c3ccccc3)cc12` [Form Beta of Eletriptan hydrobromide]: the stability of polymorph result in data set [5] is reported as “not stable”.
